This is an account of results in patent publication EP4311580A1, “AMINOACID-FLUORIDE SALTS FOR MOUTH HYGIENE” (Schäfer, Rolf, priority 2022, dated 2024).

In data set [1] the test system is MG-63 osteoblast cells. Briefly: Time to confluence of MG-63 osteoblast cells in tissue culture with fluoride compounds in the medium. The note with it: for effect on osteoblast cells in culture (lysis / influence on growth / toxicity) / inhibition of cell growth: MG-63 osteoblasts; for effect on osteoblast cells in culture (lysis / influence on growth / toxicity): 1400ppm fluoride, result in words; for inhibition of cell growth: 1400ppm fluoride concentration, relative to control; for Time to confluence (days) / Time to confluence: compounds at 1400ppm fluoride in cell growth media, 5x10cm tissue culture flasks, control without fluoride 4-5 days.

For data set [2], the system named is MG-63 osteoblast cells.

Read-outs that look alike come from different tables or passages of the source.

In the case of `CCCCCCCCCCCCOS(=O)(=O)[O-].[Na+]` [Sodium laurylsulfate (SDS), Sodium laurylsulfate, reference compound], in data set [1], the “effect on osteoblast cells in culture (lysis / influence on growth / toxicity)” value is recorded as “lysing (dissolving the membrane) osteoblast cells”. For the same compound, the “Time to confluence (days)” value in data set [2] is “cell lysis”.
For Potassium fluoride [reference compound], the “Time to confluence” value in data set [2] fell in the range of 6 to 7 days.
On to `NCCCCC(N)C(=O)O` (stereo not shown) [Lysine-ε-ammonium-fluoride], for which, in data set [1], the “inhibition of cell growth” value is “no inhibition at all” and the “effect on osteoblast cells in culture (lysis / influence on growth / toxicity)” value was “no influence of growth on osteoblasts”. Besides, the “Time to confluence” value in data set [2] lay in the range of 4 to 5 days.
For `CCCCCCCCCCCCCCCCCCN(CCO)CCCN(CCO)CCO` [Olaflur, reference compound], in data set [1], the “effect on osteoblast cells in culture (lysis / influence on growth / toxicity)” value is “lysing (dissolving the membrane) osteoblast cells” and the “Time to confluence (days)” value is on record as “cell lysis”.
As to sodium fluoride [reference compound], the “inhibition of cell growth” value in data set [1] is 20%.
For the compound `CCOC(=O)[C@@H](N)Cc1c[nH]c2ccccc12` [Tryptophan-O-ethylester-N,N'-ammoniumdifluoride], the “Time to confluence” value in data set [1] was 8 to 9 days.
The same measure, in the same setting: for `CCOC(=O)[C@H](C)N.F.N` [Alanine-O-ethylester-ammoniumfluoride] the value was 5 to 6 days.
As to Decalysine-ε-ammonium-decafluoride, in data set [1], the “inhibition of cell growth” value is recorded as 40-50% and the “Time to confluence” value fell in the range of 8 to 9 days.
Regarding `NC(Cc1c[nH]c2ccccc12)C(=O)O` (stereo not shown) [Tryptophan-N-ammonium-mono-hydrofluoride], the “Time to confluence” value in data set [1] lay within 5 to 6 days.
Consider `CCOC(=O)[C@@H](N)CCCCN` [Lysine-O-ethylester-ε-ammoniumdifluoride], for which, in data set [2], the “Time to confluence” value was in the range of 5 to 6 days.
On to `CCOC(=O)[C@@H](N)Cc1ccc(O)cc1.F.N` [Tyrosine-O-ethylester-ammoniumfluoride], for which the “Time to confluence” value in data set [1] was 5 to 6 days.
On to `CCCCCCCCC=CCCCCCCCCN.F` [Dectaflur, 9-octadecenylamine-hydrofluoride, reference compound], for which, in data set [1], the “effect on osteoblast cells in culture (lysis / influence on growth / toxicity)” value is “lysing (dissolving the membrane) osteoblast cells” and the “Time to confluence (days)” value is recorded as “cell lysis”.
With `F.F.N.N.N[C@@H](Cc1c[nH]cn1)C(=O)O` [Histidine-ammonium-difluoride], the “Time to confluence” value in data set [1] was 7 to 8 days.
